Source: publication PMC7537881, “Biochemical screening for SARS-CoV-2 main protease inhibitors” (PLoS ONE, 2020)
“Also recorded” adds a separate entry of the source. Where two headings read alike, the source gives them in different places.

How the values were obtained:
SARS-CoV-2 M^pro [1] = target: T1, SARS-CoV-2 M^pro (Severe acute respiratory syndrome coronavirus 2, UniProt P0DTD1); format: biochemical; settings: 1 μM Mpro, 10 μM substrate, 40 μM compound
SARS-CoV-2 M^pro [2] = target: T1, SARS-CoV-2 M^pro; test: biochemical; settings: 10 μM substrate, 0.5 μM enzyme, triplicate; error = SEM
SARS-CoV-2 M^pro [3] = target: T1, SARS-CoV-2 M^pro; test: biochemical; format: biochemical; settings: for Km: read-out: Km (Michaelis Menten constant)
[4] = route and species not given; ref www.pubchem.gov; cited from earlier work
[5] = system: human immunodeficiency virus (HIV); design: method as in PMID 1517963; settings: cited from earlier work
[6] = system: HIV's reverse transcriptase; design: method as in PMID 1517963; settings: biochemical assays; cited from earlier work
mouse = settings: ref www.pubchem.gov, cited from earlier work
rat = settings: cited from earlier work
hepatitis B virus (HBV) = system: hepatitis B virus (HBV); design: method as in PMID 31798562; settings: cited from earlier work
SARS-CoV M^pro = settings: cited from earlier work
SARS-CoV-2 = settings: cited from earlier work
SARS-CoV = settings: cited from earlier work
Vero-cell = settings: cited from earlier work
[7] = 0.5 μM Mpro, substrate 1.25-80 μM, two inhibitor concentrations, error = SEM
[8] = fitted in the kinetics experiment with this inhibitor, error = SEM
[9] = most probable model by SSQ, ΔAIC, ΔBIC (Dynafit)

## COc1ccc(C(=O)c2ccc(O)cc2)c(O)c1O [2,3,4'-trihydroxy-4-methoxybenzophenone]
SARS-CoV-2 M^pro [1]
  Inhibitory activity in the screen: no significant inhibitory activity

## CCOc1cccc(C(=O)c2ccc(O)c(O)c2O)c1 [(3-ethoxyphenyl)-(2,3,4-trihydroxyphenyl)methanone]
SARS-CoV-2 M^pro [2]
  IC50: 10.6 ± 1.3 µM

## CCOc1ccc(C(=O)c2ccc(O)c(O)c2O)cc1 [(4-ethoxyphenyl)-(2,3,4-trihydroxyphenyl)methanone]
SARS-CoV-2 M^pro [2]
  IC50: 9 ± 1.5 µM

## O=[N+]([O-])C(Br)(CO)CO [Bronopol (3), 2-bromo-2-nitropropane-1,3-diol]
SARS-CoV-2 M^pro [2]
  IC50: 4.4 ± 0.6 µM
SARS-CoV-2 M^pro [3]; [7]
  Ki: 2500 ± 300 nM
SARS-CoV-2 M^pro [3]; [8]
  kcat (turnover number): 0.010 s⁻¹
SARS-CoV-2 M^pro [3]; [9]
  Inhibition mechanism: non-competitive
SARS-CoV-2 M^pro [3]; most probable model by SSQ, ΔAIC, ΔBIC (Dynafit), listed as bronopol (3)
  Inhibition mechanism: mixed or non-competitive inhibition
[4]
  LD50: 180 mg/kg

## COc1cc(-c2ccc(/N=N/c3ccc4c(S(=O)(=O)O)cc(S(=O)(=O)O)c(N)c4c3O)c(OC)c2)ccc1/N=N/c1ccc2c(S(=O)(=O)O)cc(S(=O)(=O)O)c(N)c2c1O [Chicago Sky Blue (12), Chicago Sky Blue]
SARS-CoV-2 M^pro [2]
  IC50: 7.7 ± 1.6 µM
SARS-CoV-2 M^pro [3]; [7]
  Ki: 1300 ± 200 nM
SARS-CoV-2 M^pro [3]; [8]
  kcat (turnover number): 0.013 s⁻¹
SARS-CoV-2 M^pro [3]; [9]
  Inhibition mechanism: competitive inhibition
[5]
  Inhibition of HIV in cellular assays: inhibit
[6]
  Inhibition of HIV reverse transcriptase: inhibit
mouse; IV
  LD50: 2260 mg/kg

## O=C1C(Cl)=C(Cl)C(=O)C(Cl)=C1Cl [Chloranil (8), Chloranil]
SARS-CoV-2 M^pro [2]
  IC50: 4.1 ± 0.8 µM
rat; oral, rat, ref www.pubchem.gov
  LD50: 4000 mg/kg

## Cc1cc(-c2ccc(/N=N/c3ccc4c(S(=O)(=O)O)cc(S(=O)(=O)O)c(N)c4c3O)c(C)c2)ccc1/N=N/c1ccc2c(S(=O)(=O)O)cc(S(=O)(=O)O)c(N)c2c1O [Evans blue (11), Evans blue]
SARS-CoV-2 M^pro [2]
  IC50: 0.2 ± 0.06 µM
SARS-CoV-2 M^pro [3]; [7]
  Ki: 210 ± 20 nM
SARS-CoV-2 M^pro [3]; [8]
  kcat (turnover number): 0.010 s⁻¹
SARS-CoV-2 M^pro [3]; [9]
  Inhibition mechanism: competitive inhibition
[5]
  Inhibition of HIV in cellular assays: inhibit
[6]
  Inhibition of HIV reverse transcriptase: inhibit
Hepatitis B virus (HBV)
  Inhibition of HBV in cellular assays: inhibitor
mouse; IP
  LD50: 340 mg/kg

## CC1=C(CCC(=O)O)c2cc3[nH]c(cc4nc(cc5[nH]c(cc1n2)c(C)c5C(C)O)C(C)=C4C(C)O)c(C)c3CCC(=O)O (stereo not drawn) [Hematoporphyrin (5), Hematoporphyrin]
SARS-CoV-2 M^pro [2]
  IC50: 3.9 ± 0.6 µM
SARS-CoV-2 M^pro [3]; [7]
  Ki: 5900 ± 500 nM
SARS-CoV-2 M^pro [3]; [8]
  kcat (turnover number): 0.011 s⁻¹
SARS-CoV-2 M^pro [3]; [9]
  Inhibition mechanism: non-competitive
SARS-CoV-2 M^pro [3]; most probable model by SSQ, ΔAIC, ΔBIC (Dynafit), listed as hematoporphyrin (5)
  Inhibition mechanism: mixed or non-competitive inhibition
mouse; IV
  LD50: 307 mg/kg

## CC(=O)[O][Hg][c]1ccccc1 [Phenylmercuric acetate (2), Phenylmercuric acetate]
SARS-CoV-2 M^pro [2]
  IC50: 0.4 ± 0.06 µM
SARS-CoV-2 M^pro [3]
  Inhibition mechanism: competitive inhibition
  Ki: 110 ± 30 nM
  kcat (turnover number): 0.013 s⁻¹
  Km: 52 µM
rat; oral, rat, ref www.pubchem.gov
  LD50: 41 mg/kg

## CC1=CC(=O)c2c(O)cccc2C1=O [Plumbagin (9), Plumbagin]
SARS-CoV-2 M^pro [2]
  IC50: 17.1 ± 9 µM
mouse; oral
  LD50: 16 mg/kg

## C=CC1=C(C)c2cc3[nH]c(cc4nc(cc5[nH]c(cc1n2)c(C)c5CCC(=O)O)C(CCC(=O)O)=C4C)c(C)c3C=C [Protoporphyrin IX]
SARS-CoV-2 M^pro [2]
  IC50: 23 ± 2.4 µM

## O=C(OCC1OC(OC(=O)c2cc(O)c(O)c(OC(=O)c3cc(O)c(O)c(O)c3)c2)C(OC(=O)c2cc(O)c(O)c(OC(=O)c3cc(O)c(O)c(O)c3)c2)C(OC(=O)c2cc(O)c(O)c(OC(=O)c3cc(O)c(O)c(O)c3)c2)C1OC(=O)c1cc(O)c(O)c(OC(=O)c2cc(O)c(O)c(O)c2)c1)c1cc(O)c(O)c(OC(=O)c2cc(O)c(O)c(O)c2)c1 (stereo not drawn) [Tannic acid (4), Tannic acid]
SARS-CoV-2 M^pro [2]
  IC50: 2.1 ± 0.2 µM
SARS-CoV-2 M^pro [3]; [7]
  Ki: 1400 ± 140 nM
SARS-CoV-2 M^pro [3]; [8]
  kcat (turnover number): 0.010 s⁻¹
SARS-CoV-2 M^pro [3]; [9]
  Inhibition mechanism: Competitive
SARS-CoV-2 M^pro [3]; most probable model by SSQ, ΔAIC, ΔBIC (Dynafit), listed as tannic acid (4)
  Inhibition mechanism: competitive inhibition
SARS-CoV-2 M^pro [1]
  Relative activity (initial rate / negative control): 0.0 (SD = 0.014)
SARS-CoV M^pro
  IC50: 3 µM

## C[CH2][Hg][S]c1ccccc1C(=O)[O-].[Na+] [Thimerosal (1), Thimerosal]
SARS-CoV-2 M^pro [2]
  IC50: 0.6 ± 0.1 µM
SARS-CoV-2 M^pro [3]
  Inhibition mechanism: mixed or non-competitive inhibition; also recorded: Mixed
  Ki: 600 ± 200 nM
  kcat (turnover number): 0.010 s⁻¹
  Km: 47 ± 8 µM
rat; oral, rat, ref www.pubchem.gov
  LD50: 75 mg/kg

## COc1cc(C(=S)N2CCOCC2)ccc1O [Vanitiolide (10)]
SARS-CoV-2 M^pro [2]
  IC50: 4.6 ± 0.6 µM

## COC(=O)N[C@H](C(=O)N[C@@H](Cc1ccccc1)[C@@H](O)CN(Cc1ccc(-c2ccccn2)cc1)NC(=O)[C@@H](NC(=O)OC)C(C)(C)C)C(C)(C)C [atazanavir]
SARS-CoV-2
  EC50: 2000 nM

## O=c1c2ccccc2[se]n1-c1ccccc1 [ebselen]
rat; in rats
  LD50: > 4,600 mg/kg

## CCOC(=O)c1cc(=O)oc2cc(O)c(O)cc12 [esculetin-4-carboxylic acid ethyl ester]
SARS-CoV M^pro
  IC50: 46 µM
SARS-CoV
  EC50: 112 µM
Vero-cell
  TC50 (median toxic concentration): > 800 µM
